These results are taken from ChEMBL document CHEMBL5370598, “[3H]UR-JG102-A Radiolabeled Cyclic Peptide with High Affinity and Excellent Selectivity for the Neuropeptide Y Y4 Receptor” (J Med Chem, 2023).

Experiment [1] addresses T1, Neuropeptide Y receptor type 4 (Homo sapiens, UniProt P50391). Kind of experiment: Binding affinity to human Y4R expressed in CHO cells co-expressing Gqi5-mtAEQ assessed as dissociation constant under sodium free buffer condition. It is filed as cell-based.
Experiment [2] has as its target T1, Neuropeptide Y receptor type 4. Kind of experiment: Binding affinity to human Y4R expressed in CHO cells co-expressing Gqi5-mtAEQ assessed as dissociation constant preincubated for 20 mins under DPBS condition. It is filed as cell-based.
The target is the same in experiment [3]. Kind of experiment: Binding affinity to human Y4R expressed in CHO cells co-expressing Gqi5-mtAEQ under sodium free buffer condition. It is filed as cell-based.
Experiment [4] has the same target. Put plainly: Binding affinity to human Y4R expressed in CHO cells co-expressing Gqi5-mtAEQ assessed as dissociation constant preincubated for 2 hrs under DPBS condition. It is filed as cell-based.
The target is the same in experiment [5]. Kind of experiment: Binding affinity to human Y4R under 137 mM sodium condition.
For experiment [6] the target is unchanged. Put plainly: Binding affinity to human Y4R expressed in CHO cells co-expressing Gqi5-mtAEQ under DPBS condition. It is filed as cell-based.
The target is the same in experiment [7]. Put plainly: Binding affinity to human Y4R expressed in CHO cells co-expressing Gqi5-mtAEQ at 4 degreeC. It is filed as cell-based.
Experiment [8] shares this target. Put plainly: Binding affinity to human Y4R under hypotonic sodium free condition.
The target is the same in experiment [9]. Put plainly: Binding affinity to human Y4R under 140 mM sodium condition.
Experiment [10] has the same target. Put plainly: Binding affinity to human Y4R under sodium free condition.
The target is the same in experiment [11]. Kind of experiment: Displacement of [3H]-(9S,12S,15S,19R,E)-4-amino-N-((S)-1-(((S)-1-(((S)-1-amino-3-(4-hydroxyphenyl)-1-oxopropan-2-yl)amino)-5-guanidino-1-oxopentan-2-yl)amino)-4-methyl-1-oxopentan-2-yl)-15-(3-guanidinopropyl)-12-(4-hydroxybenzyl)-2,11,14,17,20-pentaoxo-19-(4-(propanamido-2,3-t2)butanamido)-1,3,5,10,13,16,21-heptaazacyclopentacos-3-ene-9-carboxamide from human Y4R expressed in CHO cells coexpressing Gqi5-mtAEQ under isotonic sodium containing buffer condition. It is filed as cell-based.

For experiment [12] the target is unchanged. Kind of experiment: Displacement of [3H]-(9S,12S,15S,19R,E)-4-amino-N-((S)-1-(((S)-1-(((S)-1-amino-3-(4-hydroxyphenyl)-1-oxopropan-2-yl)amino)-5-guanidino-1-oxopentan-2-yl)amino)-4-methyl-1-oxopentan-2-yl)-15-(3-guanidinopropyl)-12-(4-hydroxybenzyl)-2,11,14,17,20-pentaoxo-19-(4-(propanamido-2,3-t2)butanamido)-1,3,5,10,13,16,21-heptaazacyclopentacos-3-ene-9-carboxamide from human Y4R expressed in CHO cells coexpressing Gqi5-mtAEQ under hypotonic sodium free buffer condition. It is filed as cell-based. The note with it: read-out: Ki.

SMILES strings stand for the structures.

T1 sequence (P50391 whole entry): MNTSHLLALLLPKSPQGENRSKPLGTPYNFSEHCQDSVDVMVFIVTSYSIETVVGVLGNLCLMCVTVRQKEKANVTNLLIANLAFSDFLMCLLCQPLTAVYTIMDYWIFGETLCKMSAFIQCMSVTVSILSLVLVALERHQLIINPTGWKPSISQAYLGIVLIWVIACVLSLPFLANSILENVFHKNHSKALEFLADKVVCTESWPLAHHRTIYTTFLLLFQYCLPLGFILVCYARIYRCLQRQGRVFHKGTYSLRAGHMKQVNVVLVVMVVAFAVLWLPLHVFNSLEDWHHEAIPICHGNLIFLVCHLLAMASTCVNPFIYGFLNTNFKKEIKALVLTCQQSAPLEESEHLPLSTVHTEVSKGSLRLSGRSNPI

In the case of `[3H]CC([3H])C(=O)NCCCC(=O)N[C@@H]1CC(=O)N[C@@H](CCCNC(=N)N)C(=O)N[C@@H](Cc2ccc(O)cc2)C(=O)N[C@H](C(=O)N[C@@H](CC(C)C)C(=O)N[C@@H](CCCNC(=N)N)C(=O)N[C@@H](Cc2ccc(O)cc2)C(N)=O)CCCN/C(N)=N/C(=O)NCCCCNC1=O` (stereo partly drawn), the equilibrium dissociation constant (Kd) came to 2 pM in [1]; 0.014 nM in experiment [2]; 0.012 nM in [3]; 0.09 nM in experiment [4]; 0.11 nM in [5]; 0.11 nM in [6]. This compound registered a dissociation constant (Kd) in experiment [7] of 0.86 nM.
Turning to `[3H]CC([3H])C(=O)N[C@H](CCCC[C@@H](N)C(=O)N[C@@H](Cc1ccc(O)cc1)C(=O)N[C@@H](CCCNC(=N)N)C(=O)N[C@@H](CC(C)C)C(=O)N[C@@H](CCCNC(=N)N)C(=O)N[C@@H](Cc1ccc(O)cc1)C(N)=O)C(=O)N[C@@H](Cc1ccc(O)cc1)C(=O)N[C@@H](CCCNC(=N)N)C(=O)N[C@@H](CC(C)C)C(=O)N[C@@H](CCCNC(=N)N)C(=O)N[C@@H](Cc1ccc(O)cc1)C(N)=O` (stereo partly drawn), the Ki was 0.87 nM in [8], 11 nM in [11] (read-out: Ki), 10.2 nM in experiment [11] (read-out: pKi (converted)) and 0.39 nM in experiment [12]. Besides, the Kd in [9] amounted to 9.8 nM; in [10] it was 0.67 nM.
